Data reported in patent publication US20070286890A1, “Eyelash applicator and method” (priority 2006, published 2007).

Tested on: eyelashes of healthy female volunteers
Assay: Open-label study of Lumigan applied with an applicator to the upper eyelid margin, four months
Assay type: in vivo, human
[1] = one drop on applicator tip, applied to lid margin of both upper eyelids before bedtime, through week 12, 25 volunteers, no controls, preliminary findings

CCNC(=O)CCC/C=C\C[C@@H]1[C@@H](/C=C/[C@@H](O)CCc2ccccc2)[C@H](O)C[C@@H]1O [Lumigan®, cyclopentane N-ethyl heptanamide-5-cis-2-(3α-hydroxy-5-phenyl-1trans-pentenyl)-3,5-dihydroxy, [1α,2β,3α,5α]] was tested, and the “Darker and thicker lashes, additional lashes” value [1] was “many grew darker and thicker lashes as well as additional lashes”, the “Eyelash length (longer lashes)” value [1] was “Every participant grew longer lashes” and the “Growth of lower lid lashes and eyebrow hairs” value (patients applied Lumigan "on their own" to these areas) was “grew lower lid lashes and eyebrow hairs”. For the same compound, the “Side effects (vision, IOP, ocular irritation, periocular pigmentary changes)” value (topical application to upper eyelid margin, through week 12, visits up to week 16, preliminary findings) was “Minimal Side Effects”.
